Test results from patent EP2746260A1, “Substituted [1,2,4]triazole and imidazole compounds” (BASF SE, priority 2012, dated 2014).

Assays:
[1] = test system: Pyricularia oryzae; format: cell-based; conditions: relative growth vs compound-free control (100%), 405 nm, 7 days after inoculation
[2] = test system: Botrytis cinerea; assay: Long lasting control of Botrytis cinerea on leaves of green pepper (Botrci P7), green house; format: in vivo; conditions: 16ppm spray, inoculated 7 days after treatment, % diseased leaf area after 5 days, untreated control 90
Procedure: (§1) The stock solution were prepared: a mixture of acetone and/or dimethylsulfoxide and the wetting agent/emulsifier Wettol, which is based on ethoxylated alkylphenoles, in a relation (volume) solvent-emulsifier of 99 to 1 was added to 25 mg of the compound to give a total of 5 ml. Water was then added to total volume of 100 ml. This stock solution was diluted with the described solvent-emulsifier-water mixture to the given concentration.
3. Long lasting control of Botrytis cinerea on leaves of green pepper (Botrci P7)
Young seedlings of green pepper were grown in pots to the 4 to 5 leaf stage. These plants were sprayed to run-off with an aqueous suspension, containing the concentration of active ingredient or their mixture mentioned in the table below. The plants were then cultivated in the greenhouse for 7 days and then inoculated with an aqueous biomalt solution containing the spore suspension of Botrytis cinerea. Then the plants were immediately transferred to a humid chamber. After 5 days at 22 to 24· C and a relative humidity close to 100 % the extent of fungal attack on the leaves was visually assessed as % diseased leaf area.

[3] = test system: Puccinia recondita; assay: Preventative control of brown rust on wheat (Puccrt P7), green house; format: in vivo; conditions: 16ppm spray, inoculated seven days after treatment, % diseased leaf area, untreated control 90
Procedure: as §1
5. Preventative control of brown rust on wheat caused by Puccinia recondita (Puccrt P7)
The first two developed leaves of pot-grown wheat seedling were sprayed to run-off with an aqueous suspension, containing the concentration of active ingredient or their mixture as described below. Seven days later the plants were inoculated with spores of Puccinia recondita. To ensure the success the artificial inoculation, the plants were transferred to a humid chamber without light and a relative humidity of 95 to 99 % and 20 to 24· C for 24 h. Then the trial plants were cultivated for 6 days in a greenhouse chamber at 20-24 °C and a relative humidity between 65 and 70 %. The extent of fungal attack on the leaves was visually assessed as % diseased leaf area.

[4] = test system: Botrytis cinerea; assay: Activity against the grey mold in the microtiterplate test (Botrci); format: cell-based; conditions: relative growth vs compound-free control (100%), 405 nm, 7 days after inoculation
[5] = test system: Phakopsora pachyrhizi; assay: Protective control of soy bean rust on soy beans (Phakpa P1), green house; format: in vivo; conditions: 150ppm spray, inoculated 1 day after treatment, % diseased leaf area, untreated control 70
[6] = test system: Septoria tritici; assay: Preventative control of leaf blotch on wheat (Septtr P1), green house; format: in vivo; conditions: 150ppm spray, inoculated following day, % diseased leaf area after 4 weeks, untreated control 100
Procedure: as §1
4. Preventative control of leaf blotch on wheat caused by Septoria tritici (Septtr P1)
Leaves of pot-grown wheat seedling were sprayed to run-off with an aqueous suspension of the active compound or their mixture, prepared as described. The plants were allowed to air-dry. At the following day the plants were inoculated with an aqueous spore suspension of Septoria tritici. Then the trial plants were immediately transferred to a humid chamber at 18-22°C and a relative humidity close to 100 %. After 4 days the plants were transferred to a chamber with 18-22°C and a relative humidity close to 70 %. After 4 weeks the extent of fungal attack on the leaves was visually assessed as % diseased leaf area.

[7] = test system: Botrytis cinerea; assay: Preventative fungicidal control of Botrytis cinerea on leaves of green pepper (Botrci P1), green house; format: in vivo; conditions: 150ppm spray, inoculated next day, % diseased leaf area after 5 days, untreated control 100
Procedure: as §1
2. Preventative fungicidal control of Botrytis cinerea on leaves of green pepper (Botrci P1)
Young seedlings of green pepper were grown in pots to the 4 to 5 leaf stage. These plants were sprayed to run-off with an aqueous suspension, containing the concentration of active ingredient or their mixture mentioned in the table below. The next day the plants were inoculated with an aqueous biomalt solution containing the spore suspension of Botrytis cinerea. Then the plants were immediately transferred to a humid chamber. After 5 days at 22 to 24· C and a relative humidity close to 100 % the extent of fungal attack on the leaves was visually assessed as % diseased leaf area.

SMILES | Growth (%) at 8ppm Pyrior [1] [%] | Growth (%) at 31ppm Botrci [4] [%] | Growth (%) at 31ppm Pyrior [1] [%] | Disease (%) at 150ppm Phakpa P1 [5] [%] | further results
OC(Cc1ccccc1Cl)(Cn1ncnc1S)C1(Cl)CC1 (stereo not shown) [Comparative 1, reference compound] | 33 | – | – | – | –
OC(Cc1ccccc1Cl)(Cn1cncn1)C1(Cl)CC1 (stereo not shown) [Comparative 2, reference compound] | – | – | – | – | Disease (%) at 16ppm Botrci P7 [2]: 30%; Disease (%) at 16ppm Puccrt P7 [3]: 50%
CC(c1ccccc1Cl)C(O)(C(C)n1cncn1)C1(Cl)CC1 (stereo not shown) [Compound I-1, 3-(1-Chlorocyclopropyl)-2-(2-chlorophenyl)-4-(1,2,4-triazol-1-yl)pentan-3-ol] | – | 19 | 0 | 10 | –
CC(n1cncn1)C(O)(Cc1ccccc1Cl)C1(Cl)CC1 (stereo not shown) [Compound I-3] | – | 1 | 0 | 0 | Disease (%) at 16ppm Botrci P7 [2]: 15%; Disease (%) at 150ppm Septtr P1 [6]: 3%; Disease (%) at 150ppm Botrci P1 [7]: 0%; Disease (%) at 16ppm Puccrt P7 [3]: 3%
CC(n1cncn1)C(O)(Cc1ccc(Oc2ccc(Cl)cc2)cc1Cl)C1(Cl)CC1 (stereo not shown) [Compound I-4] | – | – | 6 | 15 | –
CC(n1cncn1)C(O)(Cc1ccc(-c2ccc(Cl)cc2)cc1Cl)C1(Cl)CC1 (stereo not shown) [Compound I-5] | – | – | 10 | – | –
CC(n1ncnc1S)C(O)(Cc1ccccc1Cl)C1(Cl)CC1 (stereo not shown) [Compound I-6] | 6 | – | 0 | 0 | –
CC(c1ccccc1Cl)C(O)(C(C)n1ncnc1S)C1(Cl)CC1 (stereo not shown) [Compound I-7] | 0 | 0 | 0 | – | –
